Patent US20250109141A1, “BRD4 PROTEIN DEGRADER COMPOUND, AND PREPARATION METHOD AND USE THEREOF” (Miracure Biotechnology Limited, priority 2023, published 2025)

What was measured:
BRD4 [1] = target: T1, BRD4 (Homo sapiens, UniProt O60885); test: BRD4 degradation assay (Western-blot / Simple Western) in 22RV1; settings: 22RV1 cells, target content as percentage of control (DMSO = 100%)
BRD4 [2] = target: T1, BRD4; test: BRD4 degradation assay (Western-blot / Simple Western) in LNCap; assay type: cell-based; settings: LNCap cells, target content as percentage of control (DMSO = 100%)
Method: The mixture was centrifuged for 5 min. […] The PVDF membrane was cut and labeled. […] Images were acquired and analyzed.

LNCaP = test: Cell proliferation assay (CellTiterGlo, 72 h), LNCaP; assay type: cell-based; settings: Homo sapiens, LNCap cells, 72 h compound treatment, read-out: LNCap ATP average IC50
Method: The cell line used was 22RV1 or LNCaP, and the medium was RPMI-1640 containing 10% FBS and antibiotics. All incubations were performed at 37° C. in a humidified carbon dioxide incubator.
On day 1, cells were digested with 0.25% trypsin (containing EDTA) and collected by centrifugation.
(§1) The cells were seeded in a 96-well plate (white wall/transparent bottom) at 5000 cells/well and cultured overnight.
(§2) On day 2, A stock solution of the compound at a concentration of 10 mM was subjected to an 8-fold serial dilution to obtain 8 concentration points. 2 μL of the compound solution at each concentration point was added to 98 μL of fresh medium, and the mixture was mixed homogeneously. Then, 5 μL of the compound solution diluted in the medium at each concentration point was added to 100 μL of overnight medium containing the cells, and 2 replicates were set for each concentration. The mixture was cultured for 72 h.
(§3) After 72 h of compound treatment, the plate was equilibrated to room temperature, 100 μL of CellTiterGlo (Promega) was added. The mixture was mixed homogeneously for 2 min, left to stand at room temperature for 10 min, and then read for luminescence values on a SpectraMax M5 microplate reader to evaluate cell viability. The positive control was 1% Tween-20 and the negative control was 0.1% DMSO. IC50 was generated by 4-parameter non-linear regression fitting in GraphPad Prism.

22RV1 = test: Cell proliferation assay (CellTiterGlo, 72 h), 22RV1; assay type: cell-based; settings: Homo sapiens, 22Rv1, 72 h; read-out: 22Rv1 ATP average IC50
Method: All incubations were performed at 37° C. in a humidified carbon dioxide incubator.
as §1, §2, §3

Row | Compound | BRD4 degradation of 22RV1 (200 nM 5 h) (BRD4 [1]) | BRD4 degradation of LNCap (200 nM 5 h) (BRD4 [2]) | IC50 (LNCaP) | IC50 (22RV1)
1 | COc1ccc2c(c1)C(c1ccc(C#CCNO)cc1)=N[C@@H](CC(=O)OC(C)(C)C)c1nnc(C)n1-2 [Compound 9130] | B (20%<B<50%) | A (A<20%) | < 50 nM | < 50 nM
2 | COc1ccc2c(c1)C(c1ccc(/C=C/CN)cc1)=N[C@@H](CC(=O)OC(C)(C)C)c1nnc(C)n1-2 [Compound 9131] | B (20%<B<50%) | A (A<20%) | < 50 nM | 50 to 200 nM
3 | COc1ccc2c(c1)C(c1ccc(C#CCN)cc1)=N[C@@H](Cc1nccs1)c1nnc(C)n1-2 [Compound 9139] | B (20%<B<50%) | A (A<20%) | < 50 nM | 50 to 200 nM
4 | COc1ccc2c(c1)C(c1ccc(/C=C/CN)cc1)=N[C@@H](Cc1nccs1)c1nnc(C)n1-2 [Compound 9140] | B (20%<B<50%) | B (20%<B<50%) | 50 to 200 nM | > 500 nM
5 | COc1ccc2c(c1)C(c1ccc(/C=C/CNOC(C)=O)cc1)=N[C@@H](CC(=O)OC(C)(C)C)c1nnc(C)n1-2 [Compound 9146] | A (A<20%) | A (A<20%) | < 50 nM | < 50 nM
6 | COc1ccc2c(c1)C(c1ccc(C#CCNO)cc1)=N[C@@H](Cc1nccs1)c1nnc(C)n1-2.Cl [Compound 9174] | C (50%<C<80) | B (20%<B<50%) | 50 to 200 nM | 200 to 500 nM
7 | COc1ccc2c(c1)C(c1ccc(/C=C/CNO)cc1)=N[C@@H](CC(=O)OC1(C)CC1)c1nnc(C)n1-2 [Compound 9185] | B (20%<B<50%) | A (A<20%) | < 50 nM | < 50 nM
